Assay results published in US9309187B2, “EP2 receptor agonists” (TAKEDA GMBH, priority 2012, dated 2016).

Columns and labels:
Type in all cases: cell-based
[1] = system: TNFalpha release in human peripheral blood mononuclear cells (PBMC) stimulated with LPS; experiment: Inhibition of LPS induced TNFalpha release in human PBMCs; settings: 1 ng/mL LPS, 24 hours, reported as range bins, read-out: Inhibition of LPS induced TNFalpha release in human PBMCs pIC30 (-log IC30)
Procedure: Method for Measuring the Inhibition of TNFalpha Release in Human Peripheral Blood MononuClear Cells (PBMC) Stimulated with LPS:
Assay was performed with some modifications of the method described by Hatzelmann and Schudt (Hatzelmann and Schudt 2001, J. Pharmacol. Exp. Therapeutics 297: 267-279) and the protocol “drawing of venous blood from healthy volunteers for in vitro studies” was approved by the ethics committee of the Landesärztekammer Baden Württemberg in Stuttgart. Peripheral blood mononuclear cells (PBMCs) were isolated from venous blood with the anticoagulant citrate from healthy donors according to standard protocols using Ficoll. The cell layer of PBMCs were washed twice with phosphate buffer solution and equilibrated at room temperature for 60 minutes. 500,000 PBMCs in 180 microL RPMI1640 cell medium supplemented with 10% FCS, NEAA (Non-essential-amino-acids), L-Glutamine and Sodium Pyruvate per sample were pre-incubated with 10 microL of a serial dilution of test compound or piclamilast as positive control for 60 min. at 37° C. After pre-incubation blood samples were stimulated by the addition of 10 microL LPS (Sigma, Aldrich) per sample resulting in a final concentration of 1 ng/mL LPS and a final volume of 200 microL. Cells were incubated for 24 hours at 37° C. TNFalpha levels were determined from cell supernatant that was obtained by a centrifugation step and transferring the supernatant to a new 96-well plate. Content of TNFalpha was determined via alphaLISA Technology according to manufacture protocol (Perkin Elmer).
PBMC samples that were not stimulated with LPS were used as control and set for 100% inhibition. PBMC samples that were stimulated with LPS and solvent instead of test compound were set as 0% inhibition. Percent inhibition was calculated based on these controls for each sample and since most compounds achieved saturating maximal inhibition of 60% a pIC30 value was calculated with GraphPad Prism Software.
For the following compounds the inhibitory values of TNFalpha release [determined as −log IC30=pIC30] in human PBMCs between 5.0 and 5.9, between 6.0 and 6.9, between 7.0 and 7.9 and between 8.0 and 9.0 have been determined. The numbers of the compounds correspond to the examples numbers.
Inhibition of LPS Induced TNFalpha Release Assay in Human PBMCs: pIC30

[2] = system: normal human lung fibroblasts (NHLF); experiment: Inhibition of the proliferation of normal human lung fibroblasts (NHLF); settings: Fibroblast, IL1β (50 pg/mL) and bFGF (10 ng/mL) for 36 h, methyl-3H thymidine incorporation, read-out: inhibition of NHLF proliferation pIC50 (-log IC50) (converted)
Procedure: Method for Determination of the Inhibition of the Proliferation of Normal Human Lung Fibroblasts (NHLF)
16,500 NHLF-cells were seeded in each well of 24-well cell culture plates and were subsequently cultivated for 3.5 days. Thereafter cell culture medium was replaced by non-serum containing medium and cells were starved for 24 h. Subsequently a serial dilution of test compound was added and cells were stimulated with IL1β (Interleukine 1 beta) (50 pg/mL) and bFGF (basic Fibroblast Growth Factor) (10 ng/mL) for 36 h. For DNA-synthesis (Desoxyribonucleic Acid-synthesis) measurement methyl-^3H thymidine was added to the cells for the last 7 h of the 36 h incubation period. Thereafter the radioactive labeled cells were processed for measurement of the incorporated radioactivity as a marker for DNA-synthesis and thus proliferation. For that purpose the cell culture supernatants were removed, adherent cells washed once with ice-cold PBS and fixed in ice-cold 10% (w/v) trichloroacetic acid (TCA) for 30 min. Thereafter TCA was discarded and the DNA of the fixed cells hydrolyzed by administering 0.2 N NaOH. The radioactivity containing NaOH was then transferred into scintillation vials, scintillation liquid added and radioactivity was counted (L56500, Beckman Counter). Test compounds were dissolved in DMSO to a stock concentration of 10 mM. After administration of the compound to the cell cultures the final DMSO concentration was 0.1%. Inhibition of proliferation by the various concentrations of test compound was calculated related to 0.1% DMSO-treated control cells.
(§1) The numbers of the compounds correspond to the examples numbers.

[3] = system: normal human lung fibroblasts (NHLF), TGFβ-induced alpha-smooth muscle actin; experiment: Inhibition of the myofibroblast transition of normal human lung fibroblasts (NHLF); settings: Fibroblast; 1 ng/mL human TGFβ, 24 h, alpha-smooth muscle actin western blot; read-out: inhibition of NHLF myofibroblast transition pIC50 (-log IC50) (converted)
Procedure: Method for Determination of the Inhibition of the Myofibroblast Transition of Normal Human Lung Fibroblasts (NHLF)
200,000 NHLF-cells were seeded into each well of six-well cell culture plates in full-medium and starved for 24 h after initial 24 h incubation at 37° C., 5% CO2 and 95% humidity. Before inducing fibroblast-to-myofibroblast conversion by adding 1 ng/mL human TGFβ serial dilution of test compound was administered. After 24 h the cells were collected and processed to lysates as described subsequently.
Cells were washed, twice in PBS, trypsinated and centrifuged at 500×g for 10 min. Afterwards the cell pellet was resuspended in 150 microL freshly prepared lysis buffer (50 mM Hepes, pH 7.5, 150 mM NaCl, 1.5 mM MgCl2, 10% […], 1% Triton X-100, 0.5% Desoxycholat, 0.2% SDS, 1 mM EGTA (ethylene glycol tetraacetic acid), 100 mM NaF, 10 mM Na4P2O7, 1 mM Na-Vanadat, 1 mM PMSF and 50 U/mL Benzonase (Merck KGaA, Darmstadt, Germany), one Phosphatase Inhibitor Cocktail tablet (Complete Mini from Roche Diagnostics, Mannheim, Germany) per 10 ml buffer and stored at −80° C. for further use. Protein concentration was determined following instructions of the BCA Protein Assay (Pierce Biotechnology, Rockford, Ill., USA). Photometric measurements were performed with the microplate reader Sunrise from Tecan Group Ltd., (Männedorf, Switzerland). 6 μg of protein of the different samples were separated on a 10% SDS (Sodium Dodecyl Sulfate) discontinuous polyacrylamide gel electrophoresis. Thereafter, proteins were blotted from the gel onto a nitrocellulose transfer membrane for 2 h at 400 mA in a wet-blot-chamber. Thereafter the membrane was blocked in 5% milkpowder in PBS (Phosphate Buffered Saline) containing 0.1% Tween 20 at 4° C. overnight. Subsequently the membrane was hybridized for 4 h with the primary anti-Alpha-smooth muscle actin antibody (1:2,000 in 5% milkpowder in PBS), washed three times in PBS containing 0.1% Tween 20. This was followed by incubation with the secondary horseradish-coupled goat anti-mouse IgG detection-antibody (1:10,000 in 5% milkpowder in PBS) for 2 h. After final washing with PBS containing 0.1% Tween 20 (three times for 10 min each) the blot was developed by using a chemiluminescence detection system according to the manufacturer instructions and a luminescent image analyzer (Fuji LAS 1000 Pro).
as §1

Row | SMILES | IC30 [1] [nM] | IC50 [2] [nM] | IC50 [3] [nM]
1 | O=C(O)/C=C/c1cccc(NC(=O)c2cc(-c3ccccc3)cc3ccccc23)c1 [Example 1, (2E)-3-(3-{[(3-phenylnaphthalen-1-yl)carbonyl]amino}phenyl)prop-2-enoic acid] | 1 to 10 | 1.58 to 15.8 | 0.316 to 3.16
2 | O=C(O)/C=C/c1ccc(F)c(NC(=O)c2cc(-c3ccccc3)cc3ccccc23)c1 [Example 2, (2E)-3-(4-fluoro-3-{[(3-phenylnaphthalen-1-yl)carbonyl]amino}phenyl)prop-2-enoic acid] | 1 to 10 | 1.58 to 15.8 | 0.316 to 3.16
3 | O=C(O)/C=C/c1ccc(F)c(NC(=O)c2cc(-c3ccccc3F)cc3ccccc23)c1 [Example 9, (2E)-3-{3-[({3-[2-fluorophenyl]naphthalen-1-yl}carbonyl)amino]-4fluorophenyl}prop-2-enoic acid] | 12.6 to 100 | 1.58 to 15.8 | 0.316 to 3.16
4 | O=C(O)/C=C/c1ccc(F)c(NC(=O)c2cc(-c3cccc(F)c3)cc3ccccc23)c1 [Example 10, (2E)-3-{3-[({3-[3-fluorophenyl]naphthalen-1-yl}carbonyl)amino]-4fluorophenyl}prop-2-enoic acid] | 1 to 10 | 1.58 to 15.8 | 0.316 to 3.16
